What was measured:
HIV-1 = experiment: Virus production and infectivity of virions from cholesterol-depleted cells; type: cell-based
Procedure: PM1 cells chronically infected with HIV-1RF were washed and treated with 20 mM 2-OH-βCD in cRPMI or with cRPMI alone for 1 hr at 37° C. The cells were then washed twice before resuspension at a density of 5×10^6/ml in cRPMI. The cells were incubated for 6 hrs at 37° C., 5% CO2 and pelleted by centrifugation. Supernatants, which contained the virus, were collected and purified by centrifugation through a 20% sucrose cushion (Liao et al., supra, 2000). The virus pellets were taken up in cRPMI and titrated against LuSIV cells to determine infectivity. P24 was measured in a standard p24 ELISA.
The effect of 2-OH-βCD on infectivity of HIV was measured in a Luciferase-based single cycle infection assay as previously described (Liao et al., supra, 2000). LuSIV cells were treated with 20 mM 2-OH-βCD in iRPMI or iRPMI alone for 1 hr at 37° C. Cells were then washed with iRPMI before being resuspended in cRPMI at a density of 2×10^6/ml. Cells in 100 Tl were mixed with cRPMI or with dilutions of virus supernatant (62 to 500 pg/ml of p24) from 2-OH-βCD-treated or untreated PM1 cells and allowed to incubate overnight (16 hr) at 37° C. […] After centrifugation at 13,000×g for 30 seconds, 10, μl of lysate were added to 100 μl Luciferase Reagent (Promega) in an opaque 96 well plate and luminescence was measured on a Packard Lumicount luminometer (Downers Grove, Ill.).

[1] = test system: CXCR4, CD4 and CD45 on PHA blasts; experiment: Immunostaining and confocal microscopy of PHA blasts; type: cell-based
Procedure: Cell-surface staining of 2-OH-βCD-treated and untreated cells was performed under saturating conditions. 2-OH-βCD-treated and untreated PHA blasts (3×10^5) were washed in cold PBS and pre-incubated on ice for 15 min in 5% NGS/PBS. Cells were then incubated with MAb 1-5 μg in 5% NGS/PBS 45 min on ice, washed with PBS and then incubated with 2 μg of FITC-GAM in 5% NGS/PBS. The cells were then fixed with 2% paraformaldehyde in PBS and spun onto poly-L-lysine coated slides using cyto-funnels. The pellets were overlaid with 50 μl of 25% glycerol in PBS and a coverslip was positioned over the droplet. The edges of the slides were sealed with nail polish before storing them at 4° C. This staining procedure was also performed with cells prefixed with 2% paraformaldehyde in PBS prior to MAb staining. Viewing of slides was performed with an Olympus IX50 confocal microscope under oil immersion at 100x magnification. Micrographs were acquired onto a Silicon Graphics Workstation with Intervision software. Final images were enhanced on the Silicon Graphics Workstation by two-dimensional deconvolution, and brightness and contrast were adjusted for viewing.
Patchy staining of CXCR4 persisted after 2-OH-βCD treatment whether the cells were fixed before or after mAb staining. […]

HIV = experiment: Luciferase-based single cycle infectivity assay in LuSIV cells; type: cell-based, HIV-1; conditions: LuSIV cells treated with 20 mM; all viral input levels
Procedure: The effect of 2-OH-βCD on infectivity of HIV was measured in a Luciferase-based single cycle infection assay as previously described (Liao et al., supra, 2000). LuSIV cells were treated with 20 mM 2-OH-βCD in iRPMI or iRPMI alone for 1 hr at 37° C. Cells were then washed with iRPMI before being resuspended in cRPMI at a density of 2×10^6/ml. Cells in 100 Tl were mixed with cRPMI or with dilutions of virus supernatant (62 to 500 pg/ml of p24) from 2-OH-βCD-treated or untreated PM1 cells and allowed to incubate overnight (16 hr) at 37° C. The LuSIV cells were washed with PBS and lysed with 100 Tl of Reporter Lysis Buffer (Promega). After centrifugation at 13,000×g for 30 seconds, 10, μl of lysate were added to 100 μl Luciferase Reagent (Promega) in an opaque 96 well plate and luminescence was measured on a Packard Lumicount luminometer (Downers Grove, Ill.).
The effects of βCD treatment on HIV infectivity were measured in a sensitive single-cycle infection assay based on a cell line transfected with an LTR-luciferase cassette. […] Quantitative measurements of single round infection are obtained with this assay system (Roos et al., Virology 273:307-315, 2000, which is incorporated herein by reference). […]

## 2-hydroxypropyl-β-cyclodextrin [2-OH-βCD]
HIV-1
  Infectivity of virions from cholesterol-depleted cells: significantly less infectious
  Production of HIV-1 virions from cholesterol-depleted cells: dramatically decreased
[1]; PHA blasts after cholesterol depletion
  Distribution of CXCR4 on the cell surface: not significantly redistributed
[1]; PHA blasts after treatment
  Distribution of CD4 and CD45 on the cell surface: unchanged
HIV
  Reduction of HIV infection of LuSIV cells: ~100%
